Tests used:
Veronica [1] = assay: Activity assay of compositions, post-emergence spray of stems and leaves; assay type: in vivo; conditions: 21 days
Experimental: The required active ingredient B was purchased from a reagent company or a technical material manufacturer or synthesized by a conventional method. […] The technical materials were all dissolved with acetone solvents and diluted with aqueous solution of 0.1% Tween® 80 emulsifier, which should be used immediately after dilution.
(§1) Weeds were cultivated by a pot culture method. […] Weed seeds with plump and uniform grains were selected, soaked in lukewarm water at 25° C. for 6 hours, and accelerated to germinate in a 28° C. biochemical incubator (in darkness). The weed seeds that had just germinated were evenly placed on the surface of the soil and then covered with 0.5-1 cm soil according to the sizes of seeds.
(§2) Each treatment was repeated 4 times for 3 pots. Each pot was seeded with 20 weed seeds.
(§3) The drugs were applied once in total in the experiment. When at the stage of 1.5-2 leaves, the weeds were thinned out to maintain 10 strains per pot. Thirty strains were kept in each treatment and then continued to be cultured until the Erigeron canadensis reached 10 cm tall and other weeds in their 3-4 leaf stage for further treatment.
(§4) The well-cultured test materials were evenly placed on a 0.5 m^2 platform and foliage-sprayed by the 3WP-2000-type walking spray tower at a dosage of […] and a spray pressure of 0.3 MPa. After all the drug solution was sprayed, the air valve was closed. And 30 seconds later, the door of the spray tower was opened, and the nutritional bowl was taken out. Next, the air valve was opened, and the spray tube was cleaned by spraying 50 ml of water. The test materials were transferred to and routinely cultured in a greenhouse after the treatment.
(§5) A method for investigating absolute numbers was employed. The whole seedlings of the survival weeds were cut along the soil surface with a blade, and the fresh weight of the weeds was weighed by an analytical balance. For dead weeds, the fresh weight thereof was considered zero.
(§6) The investigation was performed 21 days after the treatment for once in total.
The theoretical fresh weight inhibition rate of a mixed combination of each treatment was calculated by the Gowing method (E0=X+Y−X*Y/100). […] An optimal ratio was determined according to factors such as the actual control effects, characteristics of herbicides, balance of the formulation, etc. In the formula, X represents the fresh weight inhibition rate of the active ingredient A in a dosage of P; Y represents the fresh weight inhibition rate of the active ingredient B in a dosage of Q. The statistical results are shown in Table 5 below.

Euphorbia helioscopia = assay: as above; assay type: in vivo; conditions: 21 days
Excerpt: The required active ingredient B was purchased from a reagent company or a technical material manufacturer or synthesized by a conventional method. The active ingredient A was Compound 74 in Table 1. The technical materials were all dissolved with acetone solvents and diluted with aqueous solution of 0.1% Tween® 80 emulsifier, which should be used immediately after dilution.
as §1
The weeds were cultured in a controllable sunlight greenhouse at 20-30° C., in natural light, and with relative humidity of 57%-72%. The soil was loam with an organic matter content of 1.63%, a pH value of 7.1, alkali-hydrolyzable nitrogen of 84.3 mg/kg, rapidly available phosphorus of 38.5 mg/kg, and rapidly available potassium of 82.1 mg/kg.
as §2, §3, §4, §5, §6
The theoretical fresh weight inhibition rate of a mixed combination of each treatment was calculated by the Gowing method (E0=X+Y−X*Y/100). Then compared with the measured inhibition rate (E), the type of the combined action of the combination of the two on weeds was evaluated, which was a synergistic effect when E−E0>10; an antagonistic effect when E−E0<−10%; an additional effect when −10≤E−E0≤[…]. An optimal ratio was determined according to factors such as the actual control effects, characteristics of herbicides, balance of the formulation, etc. In the formula, X represents the fresh weight inhibition rate of the active ingredient A in a dosage of P; Y represents the fresh weight inhibition rate of the active ingredient B in a dosage of Q. The statistical results are shown in Table 5 below.

Wheat = assay: Post-emergence test, crop safety; conditions: in vivo, 3 weeks
Excerpt: (§7) The criteria for activity levels of plant damage (i.e., growth control rate) are as follows: • Level 9: completely dead; • Level 8: growth control rate is greater than or equal to 90% and less than 100%; • Level 7: growth control rate is greater than or equal to 80% and less than 90%; • Level 6: growth control rate is greater than or equal to 70% and less than 80%; • Level 5: growth control rate is greater than or equal to 50% and less than 70%; • Level 4: growth control rate is greater than or equal to 30% and less than 50%; • Level 3: growth control rate is greater than or equal to 20% and less than 30%; • Level 2: growth control rate is greater than or equal to 10% and less than 20%; • Level 1: growth control rate is less than 10%; • Level 0: no effect.
(§8) The above growth control rates are fresh weight control rates.
(§9) Monocotyledonous and dicotyledonous weed seeds (Descurainia sophia, Capsella bursa-pastoris, Abutilon theophrasti, Galium spurium, Stellaria media, Lithospermum arvense, Rorippa indica, Alopecurus aequalis, Alopecurus japonicus, Eleusine indica, Beckmannia syzigachne, Sclerochloa dura, Erigeron canadensis, Phleum paniculatum, Veronica, Bromus japonicus, Aegilops tauschii, Phalaris arundinacea, Amaranthus retroflexus, Chenopodium, Commelina communis, Cichorium endivia, Convolvulus arvensis, Cirsium arvense, Solanum nigrum, Acalypha australis, Digitaria sanguinalis, Echinochloa crusgalli, Setaria viridis, Setaria pumila, Leptochloa chinensis, Monochoria vaginalis, Sagittaria trifolia, Schoenoplectiella juncoides, Cyperus rotundus, Cyperus iria, Cyperus difformis, Fimbristylis, Portulaca oleracea, Xanthium sibiricum, Ipomoea nil, Eschenbachia japonica, etc.) and major crop seeds (wheat, maize, paddy rice, soybean, cotton, oilseed rape, millet, sorghum, potato, sesame, castor plant, Chinese cabbage, radish, etc.) were placed in plastic pots filled with soil and then covered with 0.5-2 cm of soil to allow them to grow in a favorable greenhouse environment. Two weeks after sowing, the test plants were treated at the stage of 2-3 leaves. The test compounds of the present invention were individually dissolved with acetone, then added with Tween® 80, with 1.5 L/ha of methyl oleate emulsifiable concentrate as a synergist, diluted into solution of a certain concentration using a certain amount of water, and sprayed to plants using a spray tower. After drug application, the experimental results on weeds were collected after 3 weeks of cultivation in a greenhouse. The compounds were applied at 120, 60, 30, and 15 g a.i./ha in triplicate, and the results were averaged.

Paddy rice = assay: Post-emergence test, crop safety; conditions: in vivo, 3 weeks
Excerpt: as §7, §8, §9

Veronica [2] = assay: Post-emergence test on weeds; assay type: in vivo; design: key: 0 = no effect, 9 = completely dead (levels by growth control rate); conditions: 30 g a.i./ha, 3 weeks after application
Excerpt: as §7, §8, §9

[3] = test system: paddy rice (japonica rice); conditions: in vivo
Excerpt: as §7, §8
In addition, after being loaded into the 1/1,000,000 ha pot, the paddy field soil was leveled to keep the water storage at a depth of 3-4 cm. The paddy rice (japonica rice) at 3-leaf stage was transplanted at a transplanting depth of 3 cm on the next day. The compounds of the present invention were treated in the same manner as above on the 5th day after the transplantation.
(§10) The effects were evaluated according to the above-mentioned criteria for activity levels.

Pontederia korsakowii = assay: Control effect evaluation on weeds in paddy fields; assay type: in vivo; conditions: paddy pot, 14th day after treatment, seeds resistant to pyrazosulfuron-ethyl
Excerpt: as §7, §8
(§11) After paddy field soil was loaded into a 1/1,000,000 ha pot, the seeds of Monochoria vaginalis, Pontederia korsakowii and Bidens tripartita were sowed and gently covered with soil, then left to stand in a greenhouse with water storage of 0.5-1 cm deep. The tuber of Sagittaria trifolia was planted on the next day or 2 days later. The water storage was kept at a depth of 3-4 cm thereafter. When the Monochoria vaginalis, Pontederia korsakowii and Bidens tripartita reached their 0.5-leaf stages and the Sagittaria trifolia reached the primary leaf stage, WP or SC aqueous dilutions of the compounds of the present invention formulated according to customary formulation methods were homogeneously dripped for treatment to the specified effective amount using pipettes.
as §10

Monochoria vaginalis = assay: Control effect evaluation on weeds in paddy fields; assay type: in vivo; conditions: paddy pot, 14th day after treatment, seeds resistant to pyrazosulfuron-ethyl
Excerpt: as §7, §8, §11, §10

Bidens tripartita = assay: Control effect evaluation on weeds in paddy fields; assay type: in vivo; conditions: paddy pot, 14th day after treatment, seeds resistant to pyrazosulfuron-ethyl
Excerpt: as §7, §8, §11, §10

## O=C(O)c1nc(Cl)ccc1Cl [Clopyralid, clopyralid]
Veronica [1]; B 45 g a.i./ha
  Control effect of B applied alone in a corresponding dose (%): 12.4%
Veronica [1]; B 90 g a.i./ha
  Control effect of B applied alone in a corresponding dose (%): 33.3%

## COc1c(Cl)ccc(-c2nc(C(=O)OCc3ccccc3)c(Cl)c(N)c2F)c1F [Florpyrauxifenbenzyl, florpyrauxifen-benzyl]
Veronica [1]; B 3 g a.i./ha
  Control effect of B applied alone in a corresponding dose (%): 20.1%
Veronica [1]; B 6 g a.i./ha
  Control effect of B applied alone in a corresponding dose (%): 45.8%

## Cc1nn(C)cc1C(=O)Oc1c(C(=O)c2ccc(C(F)(F)F)cc2S(C)(=O)=O)c(C)nn1C [Bipyrazone, bipyrazone]
Euphorbia helioscopia; B 7.5 g a.i./ha
  Control effect of B applied alone in a corresponding dose (%): 37.1%
Euphorbia helioscopia; B 15 g a.i./ha
  Control effect of B applied alone in a corresponding dose (%): 55.8%

## COc1c(N)nc(-c2ccc(Br)c(OC)c2F)nc1C(=O)SC [Compound 221]
Wheat
  activity level of plant damage (growth control rate), Wheat: 0
Paddy rice
  activity level of plant damage (growth control rate), Paddy rice: 0
Veronica [2]
  activity level of plant damage (growth control rate), Veronica: 9

## Cn1[nH]c(C2CC2)c(C(=O)c2ccc(C(F)(F)F)c(N3CCCCC3=O)c2Cl)c1=O [Cypyrafluone, cypyrafluone]
Euphorbia helioscopia; B 15 g a.i./ha
  Control effect of B applied alone in a corresponding dose (%): 34.7%
Euphorbia helioscopia; B 30 g a.i./ha
  Control effect of B applied alone in a corresponding dose (%): 55.2%

## CCC[S@@+]([O-])c1c(C(F)(F)F)ccc(C(=O)Nc2nnc(C)o2)c1F
Euphorbia helioscopia; B 15 g a.i./ha
  Control effect of B applied alone in a corresponding dose (%): 34.3%
Euphorbia helioscopia; B 30 g a.i./ha
  Control effect of B applied alone in a corresponding dose (%): 55.4%

## Nc1c(Cl)c(Cl)nc(C(=O)O)c1Cl [Picloram, picloram]
Veronica [1]; B 15 g a.i./ha
  Control effect of B applied alone in a corresponding dose (%): 15.7%
Veronica [1]; B 30 g a.i./ha
  Control effect of B applied alone in a corresponding dose (%): 30.8%

## COc1ncc(F)c2nc(S(=O)(=O)Nc3c(F)cccc3F)nn12 [Florasulam, florasulam]
Veronica [1]; B 3 g a.i./ha
  Control effect of B applied alone in a corresponding dose (%): 15.7%
Veronica [1]; B 6 g a.i./ha
  Control effect of B applied alone in a corresponding dose (%): 28.1%

## Nc1cc(Cl)nc(C(=O)O)c1Cl [Aminopyralid, aminopyralid]
Veronica [1]; B 30 g a.i./ha
  Control effect of B applied alone in a corresponding dose (%): 18.0%
Veronica [1]; B 60 g a.i./ha
  Control effect of B applied alone in a corresponding dose (%): 39.7%

## COC(=O)c1nc(-c2ccc(C(F)F)c(OC)c2F)nc(N)c1OC [Compound 4]
[3]
  activity level, Paddy rice: 0
Veronica [2]
  activity level of plant damage (growth control rate), Veronica: 9
Pontederia korsakowii; 75 g a.i./ha
  activity level, Pontederia korsakowii: 9
Monochoria vaginalis; 75 g a.i./ha
  activity level, Monochoria vaginalis: 9
Bidens tripartita; 75 g a.i./ha
  activity level, Bidens tripartita: 9

## COC(=O)c1nc(-c2ccc(Cl)c(OC)c2F)cc(N)c1Cl [Halauxifenmethyl, halauxifen-methyl]
Veronica [1]; B 1.5 g a.i./ha
  Control effect of B applied alone in a corresponding dose (%): 22.8%
Veronica [1]; B 3 g a.i./ha
  Control effect of B applied alone in a corresponding dose (%): 43.1%

## CCn1ncc(C(=O)c2ccc(S(C)(=O)=O)c(COCC(F)(F)F)c2Cl)c1OC(=O)c1cn(C)nc1C [Fenpyrazone, fenpyrazone]
Euphorbia helioscopia; B 15 g a.i./ha
  Control effect of B applied alone in a corresponding dose (%): 34.3%
Euphorbia helioscopia; B 30 g a.i./ha
  Control effect of B applied alone in a corresponding dose (%): 60.0%

## Cc1cc(Cl)ccc1OCC(=O)OCCCCCC(C)C [MCPA-isooctyl]
Veronica [1]; B 150 g a.i./ha
  Control effect of B applied alone in a corresponding dose (%): 23.5%
Veronica [1]; B 300 g a.i./ha
  Control effect of B applied alone in a corresponding dose (%): 40.8%

## CC1(C)CON(Cc2ccc(Cl)cc2Br)C1=O
Euphorbia helioscopia; B 60 g a.i./ha
  Control effect of B applied alone in a corresponding dose (%): 25.7%
Euphorbia helioscopia; B 120 g a.i./ha
  Control effect of B applied alone in a corresponding dose (%): 44.6%

## COC(=O)c1nc(-c2ccc(C(F)(F)F)c(OC)c2Cl)nc(N)c1OC [Compound 2]
[3]
  activity level, Paddy rice: 0
Veronica [2]
  activity level of plant damage (growth control rate), Veronica: 9
Pontederia korsakowii; 75 g a.i./ha
  activity level, Pontederia korsakowii: 9
Monochoria vaginalis; 75 g a.i./ha
  activity level, Monochoria vaginalis: 9
Bidens tripartita; 75 g a.i./ha
  activity level, Bidens tripartita: 9

## CCOC(=O)Cn1c(=O)sc2cccc(Cl)c21 [Benazolinethyl, benazolin-ethyl]
Veronica [1]; B 75 g a.i./ha
  Control effect of B applied alone in a corresponding dose (%): 24.0%
Veronica [1]; B 150 g a.i./ha
  Control effect of B applied alone in a corresponding dose (%): 35.2%

## Cc1cc(C)n(Cc2c(S(C)(=O)=O)ccc(C(=O)c3c(C)nn(C)c3OC(=O)c3cn(C)nc3C)c2Cl)n1 [Tripyrasulfone, tripyrasulfone]
Euphorbia helioscopia; B 15 g a.i./ha
  Control effect of B applied alone in a corresponding dose (%): 20.0%
Euphorbia helioscopia; B 30 g a.i./ha
  Control effect of B applied alone in a corresponding dose (%): 36.9%

## CCOC(=O)c1cnn(C)c1S(=O)(=O)NC(=O)Nc1nc(OC)cc(OC)n1 [pyrazosulfuron-ethyl, reference compound]
Pontederia korsakowii; 30 g a.i./ha
  activity level, Pontederia korsakowii: 2 (Level 2: growth control rate is greater than or equal to 10% and less than 20%)
Monochoria vaginalis; 30 g a.i./ha
  activity level, Monochoria vaginalis: 1 (Level 1: growth control rate is less than 10%)
Bidens tripartita; 30 g a.i./ha
  activity level, Bidens tripartita: 4 (Level 4: growth control rate is greater than or equal to 30% and less than 50%)

## CCCCCCC(C)OC(=O)COc1nc(F)c(Cl)c(N)c1Cl (stereo not shown) [Fluroxypyrmeptyl, fluroxypyr-meptyl]
Veronica [1]; B 60 g a.i./ha
  Control effect of B applied alone in a corresponding dose (%): 20.3%
Veronica [1]; B 120 g a.i./ha
  Control effect of B applied alone in a corresponding dose (%): 40.6%
